# Tests used:
# Test in all cases: substrate depletion, UPLC-MS/MS
# Assay type in all cases: biochemical
# Conditions in all cases: 20 uM substrate, NADPH regeneration system, 0.1 M potassium phosphate pH 7.4, 30 C, 1 h, microsomes
# CYP6AE11 = target: T1, CYP6AE11 (Helicoverpa armigera, UniProt A0A068ETU4)
# T1 construct: full ORF, baculovirus (Bac-to-Bac) in High Five cells, microsomes, co-expressed with H. armigera cytochrome P450 reductase (HaCPR)
# T1 sequence (A0A068ETU4 1-522): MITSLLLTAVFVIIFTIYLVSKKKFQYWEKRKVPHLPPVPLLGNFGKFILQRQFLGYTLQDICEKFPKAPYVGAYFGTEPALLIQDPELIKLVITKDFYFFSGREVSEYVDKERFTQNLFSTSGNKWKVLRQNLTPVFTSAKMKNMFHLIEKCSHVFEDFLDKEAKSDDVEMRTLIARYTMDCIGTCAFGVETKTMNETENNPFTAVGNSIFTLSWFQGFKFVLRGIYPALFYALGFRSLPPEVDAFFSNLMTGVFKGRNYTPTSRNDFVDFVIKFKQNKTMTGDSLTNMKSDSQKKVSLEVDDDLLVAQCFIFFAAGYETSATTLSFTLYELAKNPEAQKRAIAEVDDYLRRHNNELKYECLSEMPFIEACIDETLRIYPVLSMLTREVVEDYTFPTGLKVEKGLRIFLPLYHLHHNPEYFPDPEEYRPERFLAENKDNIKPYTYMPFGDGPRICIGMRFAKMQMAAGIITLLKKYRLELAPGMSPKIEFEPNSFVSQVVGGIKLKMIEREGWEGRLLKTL
# CYP6AE19 = target: T2, CYP6AE19 (Helicoverpa armigera, UniProt A0A068EVL0)
# T2 construct: full ORF, baculovirus (Bac-to-Bac) in High Five cells, microsomes, co-expressed with H. armigera cytochrome P450 reductase (HaCPR)
# T2 sequence (A0A068EVL0 1-528): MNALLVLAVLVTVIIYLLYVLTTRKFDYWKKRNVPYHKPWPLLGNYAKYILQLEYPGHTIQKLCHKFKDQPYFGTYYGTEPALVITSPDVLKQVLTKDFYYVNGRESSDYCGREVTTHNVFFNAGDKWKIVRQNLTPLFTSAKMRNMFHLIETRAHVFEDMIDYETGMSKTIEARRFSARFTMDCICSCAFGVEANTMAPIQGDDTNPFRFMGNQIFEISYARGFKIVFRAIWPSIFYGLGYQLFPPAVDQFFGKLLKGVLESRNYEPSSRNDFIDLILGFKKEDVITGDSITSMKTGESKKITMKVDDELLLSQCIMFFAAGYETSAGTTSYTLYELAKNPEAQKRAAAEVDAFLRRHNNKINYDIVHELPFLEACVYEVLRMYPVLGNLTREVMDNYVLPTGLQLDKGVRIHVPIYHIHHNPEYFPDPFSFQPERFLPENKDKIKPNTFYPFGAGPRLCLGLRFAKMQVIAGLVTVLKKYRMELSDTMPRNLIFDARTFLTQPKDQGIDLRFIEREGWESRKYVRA
# CYP6AE14 = target: T3, CYP6AE14 (Helicoverpa armigera, UniProt A0A068EU65)
# T3 construct: full ORF, baculovirus (Bac-to-Bac) in High Five cells, microsomes, co-expressed with H. armigera cytochrome P450 reductase (HaCPR)
# T3 sequence (A0A068EU65 1-526): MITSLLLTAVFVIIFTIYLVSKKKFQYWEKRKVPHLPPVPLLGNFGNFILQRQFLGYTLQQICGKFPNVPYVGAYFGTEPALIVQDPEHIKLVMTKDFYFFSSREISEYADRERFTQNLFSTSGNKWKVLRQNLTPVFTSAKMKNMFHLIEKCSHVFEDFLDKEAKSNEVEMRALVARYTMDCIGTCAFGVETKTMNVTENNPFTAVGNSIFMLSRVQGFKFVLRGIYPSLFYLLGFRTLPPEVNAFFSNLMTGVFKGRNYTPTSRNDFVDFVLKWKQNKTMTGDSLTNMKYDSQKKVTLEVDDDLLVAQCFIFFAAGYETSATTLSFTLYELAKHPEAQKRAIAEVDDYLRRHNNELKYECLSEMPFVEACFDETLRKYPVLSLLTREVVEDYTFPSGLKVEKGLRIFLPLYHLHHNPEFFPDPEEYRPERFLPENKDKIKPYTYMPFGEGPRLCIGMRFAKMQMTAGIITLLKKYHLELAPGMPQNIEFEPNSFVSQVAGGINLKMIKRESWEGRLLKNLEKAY
compound,measurement,setting,value
CCCCCCCCCCCC(C)=O [2-tridecanone],"substrate depletion, UPLC-MS/MS",CYP6AE11,"2-tridecanone was metabolized by three CYP6AE P450s: CYP6AE11, CYP6AE14, and CYP6AE19"
same,"substrate depletion, UPLC-MS/MS",CYP6AE19,"2-tridecanone was metabolized by three CYP6AE P450s: CYP6AE11, CYP6AE14, and CYP6AE19"
same,"substrate depletion, UPLC-MS/MS",CYP6AE14,"2-tridecanone was metabolized by three CYP6AE P450s: CYP6AE11, CYP6AE14, and CYP6AE19"

# From paper PMC6240031, “CYP6AE gene cluster knockout in Helicoverpa armigera reveals role in detoxification of phytochemicals and insecticides” (Nature Communications, 2018)
